PubChem BioAssay (NCI)
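Five concentrations, 48 hours, 96-well plates. Definition used: TGI = concentration required for complete inhibition of growth.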

Columns and labels:
Experiment in all cases: inhibition of tumour cell growth, NCI panel, 48 h
[1] = system: 786-0 renal
[2] = system: A498 renal
[3] = system: A549 NSCLC
[4] = system: ACHN renal
[5] = system: CAKI-1 renal
[6] = system: CCRF-CEM leukemia
[7] = system: COLO 205 colon
[8] = system: DLD-1 colon
[9] = system: DMS 114 small cell lung
[10] = system: DMS 273 small cell lung
[11] = system: HCC-2998 colon
[12] = system: HCT-116 colon
[13] = system: HCT-15 colon
[14] = system: HL-60(TB) leukemia
[15] = system: HOP-18 NSCLC
[16] = system: HOP-92 NSCLC
[17] = system: HT29 colon
[18] = system: IGROV1 ovarian
[19] = system: K-562 leukemia
[20] = system: KM12 colon
[21] = system: KM20L2 colon
[22] = system: LOX IMVI melanoma
[23] = system: LXFL 529 NSCLC
[24] = system: M14 melanoma
[25] = system: M19-MEL melanoma
[26] = system: MALME-3M melanoma
[27] = system: MOLT-4 leukemia
[28] = system: NCI-H226 lung
[29] = system: NCI-H23 lung
[30] = system: NCI-H460 lung
[31] = system: NCI-H522 lung
[32] = system: OVCAR-3 ovarian
[33] = system: OVCAR-4 ovarian
[34] = system: OVCAR-5 ovarian
[35] = system: OVCAR-8 ovarian
[36] = system: RPMI-8226 leukemia
[37] = system: RXF 393 renal
[38] = system: SF-268 CNS
[39] = system: SK-MEL-2 melanoma
[40] = system: SK-MEL-28 melanoma
[41] = system: SK-OV-3 ovarian
[42] = system: SN12C renal
[43] = system: SNB-75 CNS
[44] = system: SNB-78 CNS
[45] = system: SW-620 colon
[46] = system: TK-10 renal
[47] = system: U251 CNS
[48] = system: UACC-257 melanoma
[49] = system: UACC-62 melanoma
[50] = system: UO-31 renal
[51] = system: HOP-62 NSCLC
[52] = system: SF-295 CNS
[53] = system: SF-539 CNS
[54] = system: SK-MEL-5 melanoma
[55] = system: SNB-19 CNS
[56] = system: EKVX NSCLC

Structure (SMILES): CCOC(=O)N1CCN(P(=O)(Nc2ccc3nc(NC(=O)OC)[nH]c3c2)Oc2ccccc2)CC1 (stereo not given)
- TGI [1]: > 100 µM
- TGI [2]: > 100 µM
- TGI [3]: > 100 µM
- TGI [4]: > 100 µM
- TGI [5]: > 100 µM
- TGI [6]: > 100 µM
- TGI [7]: > 100 µM
- TGI [8]: > 100 µM
- TGI [9]: > 100 µM
- TGI [10]: > 100 µM
- TGI [11]: > 100 µM
- TGI [12]: > 100 µM
- TGI [13]: > 100 µM
- TGI [14]: > 100 µM
- TGI [15]: > 100 µM
- TGI [16]: > 100 µM
- TGI [17]: > 100 µM
- TGI [18]: > 100 µM
- TGI [19]: > 100 µM
- TGI [20]: > 100 µM
- TGI [21]: > 100 µM
- TGI [22]: > 100 µM
- TGI [23]: > 100 µM
- TGI [24]: > 100 µM
- TGI [25]: > 100 µM
- TGI [26]: > 100 µM
- TGI [27]: > 100 µM
- TGI [28]: > 100 µM
- TGI [29]: > 100 µM
- TGI [30]: > 100 µM
- TGI [31]: > 100 µM
- TGI [32]: > 100 µM
- TGI [33]: > 100 µM
- TGI [34]: > 100 µM
- TGI [35]: > 100 µM
- TGI [36]: > 100 µM
- TGI [37]: > 100 µM
- TGI [38]: > 100 µM
- TGI [39]: > 100 µM
- TGI [40]: > 100 µM
- TGI [41]: > 100 µM
- TGI [42]: > 100 µM
- TGI [43]: > 100 µM
- TGI [44]: > 100 µM
- TGI [45]: > 100 µM
- TGI [46]: > 100 µM
- TGI [47]: > 100 µM
- TGI [48]: > 100 µM
- TGI [49]: > 100 µM
- TGI [50]: > 100 µM

Structure (SMILES): CC(=O)Nc1ccc(-c2nnc(SCC(=O)Nc3ccc(Cl)cc3Cl)o2)cc1
- TGI [1]: 44.3 µM
- TGI [2]: > 100 µM
- TGI [3]: > 100 µM
- TGI [4]: > 100 µM
- TGI [5]: > 100 µM
- TGI [6]: > 100 µM
- TGI [7]: 68.3 µM
- TGI [8]: > 100 µM
- TGI [9]: 38.7 µM
- TGI [10]: > 100 µM
- TGI [11]: > 100 µM
- TGI [12]: > 100 µM
- TGI [13]: > 100 µM
- TGI [14]: > 100 µM
- TGI [15]: > 100 µM
- TGI [51]: > 100 µM
- TGI [17]: > 100 µM
- TGI [18]: > 100 µM
- TGI [19]: > 100 µM
- TGI [20]: > 100 µM
- TGI [21]: > 100 µM
- TGI [22]: > 100 µM
- TGI [23]: 54.7 µM
- TGI [24]: > 100 µM
- TGI [25]: > 100 µM
- TGI [26]: 60.3 µM
- TGI [27]: > 100 µM
- TGI [28]: 99 µM
- TGI [29]: > 100 µM
- TGI [30]: > 100 µM
- TGI [31]: 48.3 µM
- TGI [32]: 57.9 µM
- TGI [33]: > 100 µM
- TGI [34]: > 100 µM
- TGI [35]: > 100 µM
- TGI [37]: 66.3 µM
- TGI [38]: > 100 µM
- TGI [52]: > 100 µM
- TGI [53]: 84.4 µM
- TGI [39]: > 100 µM
- TGI [40]: > 100 µM
- TGI [54]: 37.4 µM
- TGI [41]: > 100 µM
- TGI [42]: 57.5 µM
- TGI [55]: 51.9 µM
- TGI [43]: 96.6 µM
- TGI [44]: > 100 µM
- TGI [45]: > 100 µM
- TGI [46]: > 100 µM
- TGI [47]: 38.7 µM
- TGI [48]: > 100 µM
- TGI [50]: > 100 µM

Structure (SMILES): CC(=O)OC12c3ccccc3C1CCCC21OCCCO1 (stereo not given)
- TGI [1]: > 100 µM
- TGI [2]: > 100 µM
- TGI [3]: > 100 µM
- TGI [4]: > 100 µM
- TGI [5]: > 100 µM
- TGI [6]: > 100 µM
- TGI [7]: > 100 µM
- TGI [8]: > 100 µM
- TGI [9]: > 100 µM
- TGI [10]: > 100 µM
- TGI [56]: > 100 µM
- TGI [11]: > 100 µM
- TGI [12]: > 100 µM
- TGI [13]: > 100 µM
- TGI [15]: > 100 µM
- TGI [51]: > 100 µM
- TGI [17]: > 100 µM
- TGI [18]: > 100 µM
- TGI [19]: > 100 µM
- TGI [20]: > 100 µM
- TGI [21]: > 100 µM
- TGI [22]: > 100 µM
- TGI [23]: > 100 µM
- TGI [24]: > 100 µM
- TGI [25]: > 100 µM
- TGI [26]: > 100 µM
- TGI [27]: > 100 µM
- TGI [28]: > 100 µM
- TGI [29]: > 100 µM
- TGI [30]: > 100 µM
- TGI [31]: > 100 µM
- TGI [32]: > 100 µM
- TGI [33]: > 100 µM
- TGI [34]: > 100 µM
- TGI [35]: > 100 µM
- TGI [36]: > 100 µM
- TGI [37]: > 100 µM
- TGI [38]: > 100 µM
- TGI [52]: > 100 µM
- TGI [53]: > 100 µM
- TGI [39]: > 100 µM
- TGI [40]: > 100 µM
- TGI [41]: > 100 µM
- TGI [42]: > 100 µM
- TGI [55]: > 100 µM
- TGI [43]: > 100 µM
- TGI [44]: > 100 µM
- TGI [45]: > 100 µM
- TGI [46]: > 100 µM
- TGI [47]: > 100 µM
- TGI [48]: > 100 µM
- TGI [49]: > 100 µM
- TGI [50]: > 100 µM
